{"source": "ChEMBL document CHEMBL3112450", "about": "“Synthesis and in vitro antitumor evaluation of primary amine substituted quinazoline linked benzimidazole” (Bioorg Med Chem Lett, 2014)", "assay_type_in_all_cases": "functional", "key": {"[1]": {"assay": "Cytotoxicity against human NCI-ADR-RES cells assessed as cell growth at 10^-8 M after 48 hrs by SRB assay", "conditions": "read-out: Activity"}, "[2]": {"test_system": "NCI-H322M", "assay": "Cytotoxicity against human NCI-H322M cells after 48 hrs by SRB assay"}, "[3]": {"test_system": "SF-295", "assay": "Cytotoxicity against human SF295 cells assessed as cell growth at 10^-4 M after 48 hrs by SRB assay", "conditions": "SF-295, 48 h, read-out: Activity"}, "[4]": {"test_system": "MDA-MB-435", "assay": "Cytotoxicity against human MDA-MB-435 cells assessed as cell growth at 10^-7 M after 48 hrs by SRB assay", "conditions": "MDA-MB-435, 48 h, read-out: Activity"}, "[5]": {"test_system": "IGROV-1", "assay": "Cytotoxicity against human IGROV1 cells assessed as cell growth at 10^-4 M after 48 hrs by SRB assay", "conditions": "IGROV-1, 48 h, read-out: Activity"}, "[6]": {"test_system": "OVCAR-3", "assay": "Cytotoxicity against human OVCAR3 cells assessed as cell growth at 10^-7 M after 48 hrs by SRB assay", "conditions": "OVCAR-3, 48 h, read-out: Activity"}, "[7]": {"test_system": "U-251", "assay": "Cytotoxicity against human U251 cells assessed as cell growth at 10^-8 M after 48 hrs by SRB assay", "conditions": "U-251, 48 h, read-out: Activity"}, "[8]": {"test_system": "KM12", "assay": "Cytotoxicity against human KM12 cells assessed as cell growth at 10^-7 M after 48 hrs by SRB assay", "conditions": "KM12, 48 h, read-out: Activity"}, "[9]": {"test_system": "T47D", "assay": "Cytotoxicity against human T47D cells assessed as growth inhibition at 10 uM after 48 hrs by SRB assay", "conditions": "read-out: GI"}, "[10]": {"test_system": "MCF7", "assay": "Cytotoxicity against human MCF7 cells assessed as cell growth at 10^-6 M after 48 hrs by SRB assay", "conditions": "MCF7, 48 h, read-out: Activity"}, "[11]": {"test_system": "U-251", "assay": "Cytotoxicity against human U251 cells assessed as cell growth at 10^-6 M after 48 hrs by SRB assay", "conditions": "U-251, 48 h, read-out: Activity"}, "[12]": {"test_system": "COLO 205", "assay": "Cytotoxicity against human COLO205 cells assessed as cell growth at 10^-4 M after 48 hrs by SRB assay", "conditions": "COLO 205, 48 h, read-out: Activity"}, "[13]": {"test_system": "A498", "assay": "Cytotoxicity against human A498 cells after 48 hrs by SRB assay", "conditions": "A498, 48 h"}, "[14]": {"test_system": "T47D", "assay": "Cytotoxicity against human T47D cells assessed as cell growth at 10^-4 M after 48 hrs by SRB assay", "conditions": "read-out: Activity"}, "[15]": {"test_system": "DU-145", "assay": "Cytotoxicity against human DU145 cells assessed as cell growth at 10^-6 M after 48 hrs by SRB assay", "conditions": "DU-145, 48 h, read-out: Activity"}, "[16]": {"test_system": "OVCAR-3", "assay": "Cytotoxicity against human OVCAR3 cells assessed as cell growth at 10^-8 M after 48 hrs by SRB assay", "conditions": "OVCAR-3, 48 h, read-out: Activity"}, "[17]": {"test_system": "SF-268", "assay": "Cytotoxicity against human SF268 cells assessed as cell growth at 10^-8 M after 48 hrs by SRB assay", "conditions": "SF-268, 48 h, read-out: Activity"}, "[18]": {"assay": "Cytotoxicity against human Hs578T cells assessed as cell growth at 10^-6 M after 48 hrs by SRB assay", "conditions": "Hs-578T, read-out: Activity"}, "[19]": {"test_system": "CCRF-CEM", "assay": "Cytotoxicity against human CCRF-CEM cells assessed as cell growth at 10^-4 M after 48 hrs by SRB assay", "conditions": "read-out: Activity"}, "[20]": {"assay": "Cytotoxicity against human Hs578T cells assessed as cell growth at 10^-4 M after 48 hrs by SRB assay", "conditions": "Hs-578T, read-out: Activity"}, "[21]": {"test_system": "SW-620", "assay": "Cytotoxicity against human SW620 cells assessed as cell growth at 10^-7 M after 48 hrs by SRB assay", "conditions": "SW-620, 48 h, read-out: Activity"}, "[22]": {"test_system": "M14", "assay": "Cytotoxicity against human M14 cells assessed as cell growth at 10^-4 M after 48 hrs by SRB assay", "conditions": "M14, 48 h, read-out: Activity"}, "[23]": {"test_system": "M14", "assay": "Cytotoxicity against human M14 cells after 48 hrs by SRB assay", "conditions": "M14, 48 h"}, "[24]": {"test_system": "HCT-116", "assay": "Cytotoxicity against human HCT116 cells assessed as cell growth at 10^-8 M after 48 hrs by SRB assay", "conditions": "HCT-116, 48 h, read-out: Activity"}, "[25]": {"test_system": "SK-OV-3", "assay": "Cytotoxicity against human SKOV3 cells assessed as cell growth at 10^-4 M after 48 hrs by SRB assay", "conditions": "SK-OV-3, 48 h, read-out: Activity"}, "[26]": {"test_system": "MDA-MB-468", "assay": "Cytotoxicity against human MDA-MB-468 cells assessed as cell growth at 10^-7 M after 48 hrs by SRB assay", "conditions": "MDA-MB-468, 48 h, read-out: Activity"}, "[27]": {"assay": "Cytotoxicity against human UO31 cells assessed as cell growth at 10^-8 M after 48 hrs by SRB assay", "conditions": "UO-31, 48 h, read-out: Activity"}, "[28]": {"test_system": "A498", "assay": "Cytotoxicity against human A498 cells assessed as cell growth at 10^-4 M after 48 hrs by SRB assay", "conditions": "A498, 48 h, read-out: Activity"}, "[29]": {"test_system": "SK-MEL-5", "assay": "Cytotoxicity against human SK-MEL-5 cells assessed as cell growth at 10^-6 M after 48 hrs by SRB assay", "conditions": "SK-MEL-5, 48 h, read-out: Activity"}, "[30]": {"test_system": "LOX IMVI", "assay": "Cytotoxicity against human LOXIMVI cells assessed as cell growth at 10^-7 M after 48 hrs by SRB assay", "conditions": "read-out: Activity"}, "[31]": {"test_system": "SN12C", "assay": "Cytotoxicity against human SN12C cells after 48 hrs by SRB assay"}, "[32]": {"test_system": "HT-29", "assay": "Cytotoxicity against human HT-29 cells assessed as cell growth at 10^-6 M after 48 hrs by SRB assay", "conditions": "HT-29, 48 h, read-out: Activity"}, "[33]": {"test_system": "NCI-H226", "assay": "Cytotoxicity against human NCI-H226 cells assessed as cell growth at 10^-8 M after 48 hrs by SRB assay", "conditions": "NCI-H226, 48 h, read-out: Activity"}, "[34]": {"test_system": "BT-549", "assay": "Cytotoxicity against human BT549 cells assessed as cell growth at 10^-4 M after 48 hrs by SRB assay", "conditions": "BT-549, 48 h, read-out: Activity"}, "[35]": {"test_system": "KM12", "assay": "Cytotoxicity against human KM12 cells after 48 hrs by SRB assay", "conditions": "KM12, 48 h"}, "[36]": {"test_system": "OVCAR-8", "assay": "Cytotoxicity against human OVCAR8 cells assessed as cell growth at 10^-6 M after 48 hrs by SRB assay", "conditions": "OVCAR-8, 48 h, read-out: Activity"}, "[37]": {"test_system": "OVCAR-8", "assay": "Cytotoxicity against human OVCAR8 cells assessed as cell growth at 10^-7 M after 48 hrs by SRB assay", "conditions": "OVCAR-8, 48 h, read-out: Activity"}, "[38]": {"test_system": "U-251", "assay": "Cytotoxicity against human U251 cells assessed as cell growth at 10^-4 M after 48 hrs by SRB assay", "conditions": "U-251, 48 h, read-out: Activity"}, "[39]": {"test_system": "HOP-92", "assay": "Cytotoxicity against human HOP92 cells assessed as cell growth at 10^-7 M after 48 hrs by SRB assay", "conditions": "HOP-92, 48 h, read-out: Activity"}}}
{"smiles": "C=CCn1c(C)nc2ccc(Nc3nc(Nc4ccc(F)cc4)nc4ccccc34)cc21", "values": [{"measurement": "growth at 0.01 µM", "setting": "[1]", "result": 100, "unit": "%"}, {"measurement": "GI50", "setting": "[2]", "result": 6.16, "unit": "µM"}, {"measurement": "LC50", "setting": "[2]", "result": 55.1, "unit": "µM"}, {"measurement": "TGI", "setting": "[2]", "result": 21.5, "unit": "µM"}, {"measurement": "growth at 100 µM", "setting": "[3]", "result": -87, "unit": "%"}, {"measurement": "growth at 0.1 µM", "setting": "[4]", "result": 100, "unit": "%"}, {"measurement": "growth at 100 µM", "setting": "[5]", "result": -51, "unit": "%"}, {"measurement": "growth at 0.1 µM", "setting": "[6]", "result": 98, "unit": "%"}, {"measurement": "growth at 0.01 µM", "setting": "[7]", "result": 97, "unit": "%"}, {"measurement": "growth at 0.1 µM", "setting": "[8]", "result": 94, "unit": "%"}, {"measurement": "inhibition of growth at 10 µM", "setting": "[9]", "result": 50, "unit": "%"}, {"measurement": "growth at 1 µM", "setting": "[10]", "result": 73, "unit": "%"}, {"measurement": "growth at 1 µM", "setting": "[11]", "result": 83, "unit": "%"}, {"measurement": "growth at 100 µM", "setting": "[12]", "result": -28, "unit": "%"}, {"measurement": "GI50", "setting": "[13]", "result": 4.36, "unit": "µM"}, {"measurement": "LC50", "setting": "[13]", "result": 69, "unit": "µM"}, {"measurement": "TGI", "setting": "[13]", "result": 24.1, "unit": "µM"}, {"measurement": "growth at 100 µM", "setting": "[14]", "result": -13, "unit": "%"}, {"measurement": "growth at 1 µM", "setting": "[15]", "result": 95, "unit": "%"}, {"measurement": "growth at 0.01 µM", "setting": "[16]", "result": 97, "unit": "%"}, {"measurement": "growth at 0.01 µM", "setting": "[17]", "result": 88, "unit": "%"}, {"measurement": "growth at 1 µM", "setting": "[18]", "result": 86, "unit": "%"}, {"measurement": "growth at 100 µM", "setting": "[19]", "result": -23, "unit": "%"}, {"measurement": "growth at 100 µM", "setting": "[20]", "result": -16, "unit": "%"}, {"measurement": "growth at 0.1 µM", "setting": "[21]", "result": 95, "unit": "%"}, {"measurement": "growth at 100 µM", "setting": "[22]", "result": -44, "unit": "%"}, {"measurement": "GI50", "setting": "[23]", "result": 3.26, "unit": "µM"}, {"measurement": "TGI", "setting": "[23]", "result": 14.2, "unit": "µM"}, {"measurement": "CC50", "setting": "[23]; read-out: LC50 (the source's name)", "result": "> 100", "unit": "µM"}, {"measurement": "growth at 0.01 µM", "setting": "[24]", "result": 99, "unit": "%"}, {"measurement": "growth at 100 µM", "setting": "[25]", "result": -37, "unit": "%"}, {"measurement": "growth at 0.1 µM", "setting": "[26]", "result": 74, "unit": "%"}, {"measurement": "growth at 0.01 µM", "setting": "[27]", "result": 87, "unit": "%"}, {"measurement": "growth at 100 µM", "setting": "[28]", "result": -68, "unit": "%"}, {"measurement": "growth at 1 µM", "setting": "[29]", "result": 73, "unit": "%"}, {"measurement": "growth at 0.1 µM", "setting": "[30]", "result": 98, "unit": "%"}, {"measurement": "GI50", "setting": "[31]", "result": 2.78, "unit": "µM"}, {"measurement": "LC50", "setting": "[31]", "result": "> 100", "unit": "µM"}, {"measurement": "TGI", "setting": "[31]", "result": 15.1, "unit": "µM"}, {"measurement": "growth at 1 µM", "setting": "[32]", "result": 91, "unit": "%"}, {"measurement": "growth at 0.01 µM", "setting": "[33]", "result": 92, "unit": "%"}, {"measurement": "growth at 100 µM", "setting": "[34]", "result": -61, "unit": "%"}, {"measurement": "GI50", "setting": "[35]", "result": 4.07, "unit": "µM"}, {"measurement": "LC50 (concentration killing 50% of cells)", "setting": "[35]", "result": 51.8, "unit": "µM"}, {"measurement": "TGI", "setting": "[35]", "result": 16.4, "unit": "µM"}, {"measurement": "growth at 1 µM", "setting": "[36]", "result": 93, "unit": "%"}, {"measurement": "growth at 0.1 µM", "setting": "[37]", "result": 94, "unit": "%"}, {"measurement": "growth at 100 µM", "setting": "[38]", "result": -80, "unit": "%"}, {"measurement": "growth at 0.1 µM", "setting": "[39]", "result": 80, "unit": "%"}]}
{"smiles": "C=CCn1c(C)nc2cc(Nc3nc(NCCO)nc4ccccc34)ccc21", "values": [{"measurement": "inhibition of growth at 10 µM", "setting": "[9]", "result": 30, "unit": "%"}]}
{"smiles": "C=CCn1c(C)nc2ccc(Nc3nc(Sc4ccc(N)cc4)nc4ccccc34)cc21", "values": [{"measurement": "inhibition of growth at 10 µM", "setting": "[9]", "result": 30, "unit": "%"}]}
